Marks after values point to notes of the source that are not given here.
Experiment: Mean marker change from baseline after treatment (TU, TT 14-day, TD single dose, TU depot injection, topical T after 7 days)
Assay type: in vivo
Details: for Cmax to mean Cave ratio: range calculated from the average low and average high for the 5 arms tested
Source text: The mean marker change from baseline in the foregoing tables can be measured at various times including: hours after treatment commences, 7 to 14 days after treatment commences, and during treatment.
A-E are all the 14-day timepoint
TU Depot Injection—after Single Dose

## CCCCCCCCCCCCC(=O)O[C@H]1CC[C@H]2[C@@H]3CCC4=CC(=O)CC[C@]4(C)[C@H]3CC[C@]12C [TT, testosterone tridecanoate]
Total daily TT dose 300 mg
  Mean marker change from baseline in serum (e.g. IL-2, IL-6, TNF-Alpha, CRP, SHBG, MCP-1, AST, ALT, ALP): −5% to −35%
  Cmax to mean Cave ratio: 1.72-3.08*
Total daily TT dose 2700 mg
  Mean marker change from baseline in serum (e.g. IL-2, IL-6, TNF-Alpha, CRP, SHBG, MCP-1, AST, ALT, ALP): −5% to −35%
  Cmax to mean Cave ratio: 1.72-3.09*

— patent US20210361673A1, “COMPOSITIONS AND METHODS OF TREATING VIRAL INFECTIONS” (Lipocine Inc., priority 2020, published 2021)
